pIC50: −log10 of the molar value.
How the values were obtained:
Format in all cases: biochemical
Human mTOR = Human mTOR (Homo sapiens, UniProt P42345); assay: mTOR kinase assay (DELFIA format, purified enzyme); set-up: FLAG; details: read-out: TOR Kinase IC50
PI3K-alpha = PI3K-alpha (Homo sapiens, UniProt P42336); assay: PI3K-alpha fluorescence polarization assay; details: read-out: PI3 Kinase α IC50
Experimental: (§1) The reaction buffer was 20 mM HEPES, pH 7.5, 2 mM MgCl2, 0.05% CHAPS; and 0.01% βME (added fresh). The Stop/Detection Buffer was 100 mM HEPES, pH 7.5, 4 mM EDTA, 0.05% CHAPS; ATP 20 mM in water; PIP2 (diC8, Echelon, Salt Lake City Utah cat #P-4508) 1 mM in water (MW=856.5). The GST-GRP was 1.75 mg/mL or 1.4 mg/mL in 10% glycerol. The Red detector (TAMRA) was 2.5 μM. Nunc 384-well black polypropylene fluorescent plates were used for PI3K assays.
(§2) The assay is run by placing 5 μL of diluted enzyme per well, then 5 μL of diluted compound (or 9.5 μL enzyme then 0.5 μL compound in DMSO) is added and mixed. Then, 10 μL substrate is added to start the reaction. The samples are incubated 30-60 minutes, then the reaction is stopped by adding 20 μL stop/detector mix. PI3K is diluted with reaction buffer (e.g., 5 μL or 7.5 μL PI3K into 620 μL reaction buffer), and 5 μL of diluted enzyme is used per well. A 5 μL portion of reaction buffer or of drug diluted in buffer (e.g., 4 μL/100 so final DMSO is 1% in reaction) is added to each. Pipetting up and down mixes the samples. Alternatively, the enzyme can be diluted to 1215 μL. In this case 9.8 μL is added per well and 0.2 μL compound is added in DMSO.
(§3) To prepare 1 mL of substrate solution, 955 μL reaction buffer, 40 μL PIP2, and 2.5 μL ATP are mixed. 10 μL of substrate is added to each well to start the reaction. […] The stop/detector mix is prepared by mixing 4 μL Red detector and 1.6 μL or 2.0 μL GST-GRP with 1 mL stop buffer, which results in 10 nM probe and 70 nM GST-GRP. 20 μL of the stop/detector mix is added to each well to stop the reaction. The plates are read after 30-90 minutes keeping the red probe solutions dark. For the zero time point, stop/detector mix is added to the enzyme just before adding substrate. For an extra control, stop/detector mix is added to buffer (no enzyme) and substrate or to just buffer (no substrate). […] The recommended reaction has 0.06 μL per 20 μL (0.015 μg/20 μL) or 0.01125 μg/15 μL or 0.75 μg/mL.
(§4) Plates are read on machines with filters for TAMRA. The units are mP with no enzyme controls reading app 190-220 mP units. Fully active enzyme reduces fluorescence polarization down to 70-100 mP after 30 minutes. An active compound raises the mP values halfway to control or to 120-150 mP units.

PI3K-gamma = PI3K-gamma (Homo sapiens, UniProt P48736); assay: PI3K-gamma fluorescence polarization assay; details: read-out: PI3 Kinase γ IC50
Experimental: as §1, §2, §3, §4

Chain of PI3K-gamma (P48736 whole entry, species assumed): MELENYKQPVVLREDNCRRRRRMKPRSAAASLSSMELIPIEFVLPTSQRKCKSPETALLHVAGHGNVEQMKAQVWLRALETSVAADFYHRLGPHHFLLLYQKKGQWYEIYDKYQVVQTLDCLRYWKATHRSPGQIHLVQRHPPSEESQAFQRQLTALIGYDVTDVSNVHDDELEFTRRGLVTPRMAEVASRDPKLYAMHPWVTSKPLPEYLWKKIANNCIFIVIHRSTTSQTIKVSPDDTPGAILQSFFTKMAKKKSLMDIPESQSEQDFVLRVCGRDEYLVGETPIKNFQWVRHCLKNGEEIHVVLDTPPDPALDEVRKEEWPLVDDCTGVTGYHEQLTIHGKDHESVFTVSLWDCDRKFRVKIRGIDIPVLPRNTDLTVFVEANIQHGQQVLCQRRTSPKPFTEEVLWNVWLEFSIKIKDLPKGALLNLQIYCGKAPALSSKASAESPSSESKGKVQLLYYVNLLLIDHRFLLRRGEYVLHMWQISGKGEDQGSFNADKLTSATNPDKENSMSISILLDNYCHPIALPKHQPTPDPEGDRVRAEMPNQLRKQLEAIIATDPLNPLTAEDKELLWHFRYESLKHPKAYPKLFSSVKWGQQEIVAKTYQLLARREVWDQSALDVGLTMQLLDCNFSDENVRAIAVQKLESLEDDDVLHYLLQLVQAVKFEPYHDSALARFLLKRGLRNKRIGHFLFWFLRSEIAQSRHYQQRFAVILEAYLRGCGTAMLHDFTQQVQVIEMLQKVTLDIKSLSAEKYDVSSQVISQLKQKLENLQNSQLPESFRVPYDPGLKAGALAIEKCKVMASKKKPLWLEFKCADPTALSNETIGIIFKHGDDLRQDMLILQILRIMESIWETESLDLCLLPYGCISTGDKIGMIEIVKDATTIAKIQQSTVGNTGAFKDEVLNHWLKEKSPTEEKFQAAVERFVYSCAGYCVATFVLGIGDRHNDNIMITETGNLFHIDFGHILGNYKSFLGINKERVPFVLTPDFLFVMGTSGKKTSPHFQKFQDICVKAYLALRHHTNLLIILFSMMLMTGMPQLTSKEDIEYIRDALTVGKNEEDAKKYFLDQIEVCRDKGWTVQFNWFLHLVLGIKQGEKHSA
Chain of PI3K-alpha (P42336 whole entry, species assumed): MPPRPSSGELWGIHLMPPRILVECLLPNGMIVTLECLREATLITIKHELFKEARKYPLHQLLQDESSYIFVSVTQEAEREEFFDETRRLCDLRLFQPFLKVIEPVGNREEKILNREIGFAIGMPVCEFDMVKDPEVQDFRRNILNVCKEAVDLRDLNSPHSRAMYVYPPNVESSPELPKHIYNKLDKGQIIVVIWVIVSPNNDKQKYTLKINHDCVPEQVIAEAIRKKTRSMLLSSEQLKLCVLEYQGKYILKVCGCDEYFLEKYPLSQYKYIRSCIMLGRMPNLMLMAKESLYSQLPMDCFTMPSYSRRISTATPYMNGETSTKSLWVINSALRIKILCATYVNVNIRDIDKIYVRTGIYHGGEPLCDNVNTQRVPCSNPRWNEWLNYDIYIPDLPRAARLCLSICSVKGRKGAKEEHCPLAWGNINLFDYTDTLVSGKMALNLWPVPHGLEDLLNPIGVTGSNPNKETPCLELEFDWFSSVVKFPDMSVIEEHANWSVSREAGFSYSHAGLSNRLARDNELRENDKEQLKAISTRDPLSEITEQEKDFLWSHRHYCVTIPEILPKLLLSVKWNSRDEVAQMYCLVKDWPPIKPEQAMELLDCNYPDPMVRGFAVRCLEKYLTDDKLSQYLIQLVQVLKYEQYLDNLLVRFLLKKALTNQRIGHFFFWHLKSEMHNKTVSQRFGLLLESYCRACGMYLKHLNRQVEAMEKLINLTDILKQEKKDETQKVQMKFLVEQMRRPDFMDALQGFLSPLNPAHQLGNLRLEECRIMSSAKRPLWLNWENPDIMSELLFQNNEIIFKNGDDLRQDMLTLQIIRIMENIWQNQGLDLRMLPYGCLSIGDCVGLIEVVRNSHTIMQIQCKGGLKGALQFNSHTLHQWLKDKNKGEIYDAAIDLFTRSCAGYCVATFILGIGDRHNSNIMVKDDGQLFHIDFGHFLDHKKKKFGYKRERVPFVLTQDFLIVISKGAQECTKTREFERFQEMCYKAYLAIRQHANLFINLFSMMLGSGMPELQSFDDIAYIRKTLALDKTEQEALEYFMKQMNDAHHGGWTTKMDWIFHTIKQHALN
Chain of PI3K-alpha (P27986 whole entry partner, species assumed): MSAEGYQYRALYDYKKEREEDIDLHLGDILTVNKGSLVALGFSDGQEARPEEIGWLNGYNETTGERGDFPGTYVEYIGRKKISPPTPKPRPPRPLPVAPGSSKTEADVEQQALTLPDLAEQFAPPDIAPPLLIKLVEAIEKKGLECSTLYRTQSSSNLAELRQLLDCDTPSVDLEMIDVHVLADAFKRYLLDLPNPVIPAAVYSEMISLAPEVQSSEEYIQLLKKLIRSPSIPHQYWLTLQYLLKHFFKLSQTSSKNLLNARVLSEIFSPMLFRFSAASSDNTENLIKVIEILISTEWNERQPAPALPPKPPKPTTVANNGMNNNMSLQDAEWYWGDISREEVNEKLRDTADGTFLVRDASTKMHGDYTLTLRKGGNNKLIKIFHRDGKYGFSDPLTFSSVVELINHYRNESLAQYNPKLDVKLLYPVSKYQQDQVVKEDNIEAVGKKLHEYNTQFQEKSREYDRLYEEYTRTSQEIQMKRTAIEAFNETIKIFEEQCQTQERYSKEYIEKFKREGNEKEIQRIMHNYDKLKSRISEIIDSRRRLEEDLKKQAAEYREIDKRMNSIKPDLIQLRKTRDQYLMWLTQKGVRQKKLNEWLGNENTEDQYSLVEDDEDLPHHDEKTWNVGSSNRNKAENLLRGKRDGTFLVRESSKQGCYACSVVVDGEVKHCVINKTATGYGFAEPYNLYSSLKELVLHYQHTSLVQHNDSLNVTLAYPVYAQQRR

| SMILES | pIC50 (Human mTOR) | pIC50 (PI3K-alpha) | pIC50 (PI3K-gamma) |
| --- | --- | --- | --- |
| Cn1ccc2c3nc(-c4ccc(N)nc4)nc(N4CCOCC4)c3ccc21 [Example 42, 5-(7-methyl-4-morpholin-4-yl-7H-pyrrolo[2,3-h]quinazolin-2-yl)pyridin-2-amine] | 6.20 | 6.21 | 5.45 |
| Cn1ccc2c3nc(-c4ccc(NC(=O)c5ccncc5)cc4)nc(N4CCOCC4)c3ccc21 [Example 18, N-[4-(7-methyl-4-morpholin-4-yl-7H-pyrrolo[2,3-h]quinazolin-2-yl)phenyl]isonicotinamide] | 5.84 | 5.35 | 5.25 |
| Cn1ccc2c3nc(-c4cnc(N)nc4)nc(N4CCOCC4)c3ccc21 [Example 43, 5-(7-methyl-4-morpholin-4-yl-7H-pyrrolo[2,3-h]quinazolin-2-yl)pyrimidin-2-amine] | 6.61 | 7.32 | 6.37 |
| Nc1ncc(-c2nc(N3CCOCC3)c3ccc4c(ccn4S(=O)(=O)c4ccccc4)c3n2)cn1 [Example 71, 5-[4-morpholin-4-yl-7-(phenylsulfonyl)-7H-pyrrolo[2,3-h]quinazolin-2-yl]pyrimidin-2-amine] | 6.26 | 7.28 | 6.94 |
| C=CCC(O)c1cccc(-c2nc(N3CCOCC3)c3ccc4c(ccn4C)c3n2)c1 (stereo not drawn) [Example 27, 1-[3-(7-methyl-4-morpholin-4-yl-7H-pyrrolo[2,3-h]quinazolin-2-yl)phenyl]but-3-en-1-ol] | 5.55 | 5.18 | 5.18 |
| CN(C)S(=O)(=O)Nc1cccc(-c2nc(N3CCOCC3)c3ccc4c(ccn4C)c3n2)c1 [Example 55, N,N-dimethyl-N′-[3-(7-methyl-4-morpholin-4-yl-7H-pyrrolo[2,3-h]quinazolin-2-yl)phenyl]sulfamide] | 6.28 | 5.36 | 5.21 |
| CS(=O)(=O)n1ccc2c3nc(-c4cccc(O)c4)nc(N4CCOCC4)c3ccc21 [Example 59, 3-[7-(methylsulfonyl)-4-morpholin-4-yl-7H-pyrrolo[2,3-h]quinazolin-2-yl]phenol] | 5.59 | 7.20 | 6.25 |
| Cn1ccc2c3nc(-c4cccc(C=O)c4)nc(N4CCOCC4)c3ccc21 [Example 23, 3-(7-methyl-4-morpholin-4-yl-7H-pyrrolo[2,3-h]quinazolin-2-yl)benzaldehyde] | 6.49 | 5.27 | 5.02 |
| O=S(=O)(c1ccccc1)n1ccc2c3nc(-c4cccc5[nH]ncc45)nc(N4CCOCC4)c3ccc21 [Example 72, 2-(1H-indazol-4-yl)-4-morpholin-4-yl-7-(phenylsulfonyl)-7H-pyrrolo[2,3-h]quinazoline] | 5.49 | 5.40 | 5.29 |
| Nc1ncc(-c2nc(N3CCOCC3)c3ccc4[nH]ccc4c3n2)cn1 [Example 58, -(4-morpholin-4-yl-7H-pyrrolo[2,3-h]quinazolin-2-yl)pyrimidin-2-amine] | 6.81 | 6.99 | 6.33 |
| COCOc1cncc(-c2nc(N3CCOCC3)c3ccc4c(ccn4S(C)(=O)=O)c3n2)c1 [Example 75, 2-[5-(methoxymethoxy)pyridin-3-yl]-7-(methylsulfonyl)-4-morpholin-4-yl-7H-pyrrolo[2,3-h]quinazoline] | 4.78 | < 5.00 | < 5.00 |
| CC(C)c1ccc(NC(=O)Nc2ccc(-c3nc(N4CCOCC4)c4ccc5c(ccn5C)c4n3)cc2)cc1 [Example 12, 1-(4-isopropylphenyl)-3-[4-(7-methyl-4-morpholin-4-yl-7H-pyrrolo[2,3-h]quinazolin-2-yl)phenyl]urea] | 6.45 | 5.70 | 5.88 |
| CC(O)c1cccc(-c2nc(N3CCOCC3)c3ccc4c(ccn4C)c3n2)c1 (stereo not drawn) [Example 24, 1-[3-(7-methyl-4-morpholin-4-yl-7H-pyrrolo[2,3-h]quinazolin-2-yl)phenyl]ethanol] | 5.78 | 5.63 | < 5.00 |
| CC(=O)NCc1cccc(-c2nc(N3CCOCC3)c3ccc4c(ccn4C)c3n2)c1 [Example 44, N-[3-(7-methyl-4-morpholin-4-yl-7H-pyrrolo[2,3-h]quinazolin-2-yl)benzyl]acetamide] | 5.40 | 5.03 | 5.02 |
| COc1ccc(-c2nc(N3CCOCC3)c3ccc4c(ccn4C)c3n2)cn1 [Example 47, 2-(6-methoxypyridin-3-yl)-7-methyl-4-morpholin-4-yl-7H-pyrrolo[2,3-h]quinazoline] | 5.69 | < 5.00 | < 5.00 |

The next compounds have a higher pIC50 (Human mTOR) than those just listed; values first:

| pIC50 (Human mTOR) | pIC50 (PI3K-alpha) | pIC50 (PI3K-gamma) | SMILES |
| --- | --- | --- | --- |
| 6.90 | 6.62 | 6.20 | Cn1ccc2c3nc(-c4ccc(NC(=O)Nc5ccc(C(F)(F)F)cc5)cc4)nc(N4CCOCC4)c3ccc21 [Example 14, 1-[4-(7-methyl-4-morpholin-4-yl-7H-pyrrolo[2,3-h]quinazolin-2-yl)phenyl]-3-[4-(trifluoromethyl)phenyl]urea] |
| 7.18 | 6.37 | 5.27 | CNC(=O)Nc1ccc(-c2nc(N3CCOCC3)c3ccc4c(ccn4C)c3n2)cc1 [Example 2, 1-methyl-3-[4-(7-methyl-4-morpholin-4-yl-7H-pyrrolo[2,3h]quinazolin-2-yl)phenyl]urea] |
| 7.14 | 7.32 | 6.52 | CC(C)N1CCC(S(=O)(=O)n2ccc3c4nc(-c5ccc(NC(=O)Nc6ccncc6)cc5)nc(N5CCOCC5)c4ccc32)CC1 [Example 65, 1-(4-{7-[(1-isopropylpiperidin-4-yl)sulfonyl]-4-morpholin-4-yl-7H-pyrrolo[2,3-h]quinazolin-2-yl}phenyl)-3-pyridin-4-ylurea] |
| 7.46 | 5.68 | 5.39 | CCNC(=O)Nc1ccc(-c2nc(N3CCOCC3)c3ccc4c(ccn4C)c3n2)cc1 [Example 3, 1-ethyl-3-[4-(7-methyl-4-morpholin-4-yl-7H-pyrrolo[2,3-h]quinazolin-2-yl)phenyl]urea] |
| 6.89 | 7.19 | 7.09 | CS(=O)(=O)n1ccc2c3nc(-c4cncc(O)c4)nc(N4CCOCC4)c3ccc21 [Example 76, 5-[7-(methylsulfonyl)-4-morpholin-4-yl-7H-pyrrolo[2,3-h]quinazolin-2-yl]pyridin-3-ol] |
| 7.12 | 5.57 | 5.29 | Cn1ccc2c3nc(-c4ccc(NC(=O)Nc5ccccn5)cc4)nc(N4CCOCC4)c3ccc21 [Example 9, 1-[4-(7-methyl-4-morpholin-4-yl-7H-pyrrolo[2,3-h]quinazolin-2-yl)phenyl]-3-pyridin-2-ylurea] |
| 7.17 | 6.92 | 6.31 | CN1CCC(S(=O)(=O)n2ccc3c4nc(-c5ccc(NC(=O)Nc6ccncc6)cc5)nc(N5CCOCC5)c4ccc32)CC1 [Example 63, 1-(4-{7-[(1-methylpiperidin-4-yl)sulfonyl]-4-morpholin-4-yl-7H-pyrrolo[2,3-h]quinazolin-2-yl}phenyl)-3-pyridin-4-ylurea] |
| 7.55 | 6.94 | 6.28 | O=C(Nc1ccncc1)Nc1ccc(-c2nc(N3CCOCC3)c3ccc4c(ccn4S(=O)(=O)C4CCNCC4)c3n2)cc1 [Example 62, 1-{4-[4-morpholin-4-yl-7-(piperidin-4-ylsulfonyl)-7H-pyrrolo[2,3-h]quinazolin-2-yl]phenyl}-3-pyridin-4-ylurea] |
| 6.89 | 6.42 | 5.46 | O=C(Nc1ccncc1)Nc1ccc(-c2nc(N3CCOCC3)c3ccc4c(ccn4S(=O)(=O)C4CCN(C(=O)OCc5ccccc5)CC4)c3n2)cc1 [Example 61, benzyl 4-[(4-morpholin-4-yl-2-{4-[(pyridin-4-ylcarbamoyl)amino]phenyl}-7H-pyrrolo[2,3-h]quinazolin-7-yl)sulfonyl]piperidine-1-carboxylate] |
| 7.30 | 5.16 | 5.17 | Cn1ccc2c3nc(-c4cccc(S(=O)(=O)NC5CC5)c4)nc(N4CCOCC4)c3ccc21 [Example 56, N-cyclopropyl-3-(7-methyl-4-morpholin-4-yl-7H-pyrrolo[2,3-h]quinazolin-2-yl)benzenesulfonamide] |
